According to patent US12570627B2, “Pharmaceutical composition in which production of impurities is suppressed” (Shionogi & Co., Ltd., priority 2020, dated 2026):

Tests used:
Type in all cases: physicochemical
[1] = Stability testing of wet-kneaded vs untreated dry-pulverized product (Test Example 7)
Protocol: A standard sample of 5 ng/mL (corresponding to 5 ppm with respect to the sample solution) of the compound represented by Formula (ITI) was prepared by the following method. Step 1: About 20 mg of the compound represented by Formula (III) was weighed precisely, and a mixed solution of acetonitrile and water (4:1) was added to dissolve the compound to make exactly 100 mL. Step 2: One milliliter of the solution of Step 1 was accurately taken, and a mixed solution of acetonitrile and water (4:1) was added to make exactly 100 mL. Step 3: One milliliter of the solution of Step 2 was accurately taken, and a mixed solution of acetonitrile and water (4:1) was added to make exactly 100 mL. Step 4: Five milliliters of the solution of […] was accurately taken, and a mixed solution of acetonitrile and water (4:1) was added to make exactly 20 mL, thereby obtaining a standard solution. Step 1: A sample in an amount corresponding to 50 mg of the compound represented by Formula (I) or the like was added to a 50 mL volumetric flask. Step 2: To Step 1 was added 10 mL of water, and the mixture was irradiated with ultrasonic waves for 10 minutes to disintegrate the sample completely. The ultrasonic irradiation time was extended as necessary. Step 3: To Step 2 was added 25 mL of acetonitrile, and the mixture was irradiated with ultrasonic waves for 30 minutes. Step 4: After cooling, acetonitrile was added to make exactly 50 mL, a part of the liquid was centrifuged at 13000 rpm for 10 minutes, and the supernatant was used as a sample solution. An amount of the compound represented by Formula (III) was measured with a liquid chromatograph according to the following method and conditions. • Measuring instrument: LC/MS/MS (PM No. AES676) manufactured by Agilent Technologies, Inc. • Column: L-column 24.6×150 mm, 3 μm • Column temperature: constant temperature at near 35° C. • Mobile phase A: 10 mM ammonium acetate • Mobile phase B: acetonitrile for liquid chromatography • Feed of mobile phase: The mixing ratio of mobile phase A and mobile phase B was changed as shown in Table 14 to control concentration gradient. • Post runtime: 5 minutes • Flow rate: 0.5 mL/min (retention time of S202AA: about 9 minutes) • Injection amount: 5 μL • Sample cooler temperature: constant temperature at near 10° C. • Needle washing solution: acetonitrile for liquid chromatography • Ionization method: ESI • Scan type: MEM • Polarity: positive • Precursor ion: m/z=187.2 • Product ion: m/z=64.9 • Fragmentor: 120 • Collision energy: 33 • Capillary: 4000 V • Gas temperature: 350° C. • Gas flow rate: 12 L/min • Nebulizer: 40 psi • MS uptake time: 0 to 12 minutes (Calculation Formula) Content (ppm) of compound represented by Formula(III)=MS×P/100×(100−WS)/100×AT/AS×1/50×1/80000×1000000 (Mathematical formula 6) • MS: Weighing amount (mg) of compound represented by Formula (III) • P: Purity (%) of compound represented by Formula (III) • WS: Moisture (%) of compound represented by Formula (JII) • AS: Peak area of compound represented by Formula (III) obtained from standard solution • AT: Peak area of compound represented by Formula (III) obtained from sample solution (Results)

[2] = Stability testing, study of stabilizer / blending property test (Test Example 9)
Protocol: A blending property test was performed on the compound represented by Formula (I) or the like and an additive, and the amount of the compound represented by Formula (III) in the product stored over time was evaluated. The sample and additive used in Reference Example 4 were weighed and mixed uniformly with a mortar and a pestle. An appropriate amount of purified water was added to the mixture, and wet kneading was performed with a pestle. The resulting granulated product was sieved with a 20-mesh wire mesh, and dried at an aeration temperature of 60° C. for 30 minutes in an aeration dryer (TH-80, SATAKE CHEMICAL EQUIPMENT MFG., LTD.). Thereafter, the resulting product was further sieved with a 20-mesh wire mesh to obtain samples of Examples 10 to 14.
The samples of Examples 10 to 14 were subjected to a stability testing under a condition of 60° C. glass bottle closed (referred to as 60° C. closed in Table 17) and 40° C. glass bottle closed (referred to as 40° C. closed in Table 17) to evaluate the content of the compound represented by Formula (III).
The content of the compound represented by Formula (II) was confirmed in the same manner as in Test Example 7.

[3] = 90% particle size distribution of bead mill wet-pulverized product, Mastersizer 2000 (Test Example 5); details: Mastersizer 2000, SDS aqueous dispersion
Protocol: The obtained slurry was wet-pulverized with a bead mill (DYNO-MILL nanodisperser research lab type, Willy A. Bachofen AG) and then filtered to obtain an anhydrate crystal (90% particle size distribution: 2.791 μm) of the compound represented by Formula (I). The 90% particle size distribution was measured by the method described in Test Example 5.
A 90% particle size distribution was measured according to the following method and conditions. • Measuring instrument: particle size distribution measuring apparatus (Mastersizer 2000, Malvern Panalytical Ltd) • Dispersion solvent: 0.1 g of sodium dodecyl sulfate (SDS) was dissolved in 1 L of water • Rotation speed: 2500 rpm • Ultrasound: 50% • Slurry concentration: adjusted between 10 to 20%

[4] = 40° C. glass bottle closed, 1 month
[5] = 40° C. glass bottle closed, 2 weeks
[6] = 40° C. glass bottle closed, 3 months
[7] = 60° C. glass bottle closed, 2 weeks

SMILES | Content of compound represented by Formula (III), 40° C. glass bottle closed 1M [1, 4] [ppm] | Content of compound represented by Formula (III), 40° C. glass bottle closed 2W [1, 5] [ppm] | Content of compound represented by Formula (III), 40° C. glass bottle closed 3M [1, 6] [ppm] | Content of compound represented by Formula (III), 40° C./75% RH glass bottle opened 1M ([1]; 40° C./75% RH glass bottle opened, 1 month) [ppm] | Content of compound represented by Formula (III), 40° C./75% RH glass bottle opened 2W ([1]; 40° C./75% RH glass bottle opened, 2 weeks) [ppm] | Content of compound represented by Formula (III), 40° C./75% RH glass bottle opened 3M ([1]; 40° C./75% RH glass bottle opened, 3 months) [ppm] | Content of compound represented by Formula (III), 60° C. glass bottle closed 2W [1, 7] [ppm] | Content of compound represented by Formula (III), Initial ([1]; start of test) [ppm] | Amount of compound represented by Formula (III), 40° C. closed 1M [2, 4] [ppm] | Amount of compound represented by Formula (III), 40° C. closed 2W [2, 5] [ppm] | Amount of compound represented by Formula (III), 40° C. closed 3M [2, 6] [ppm] | Amount of compound represented by Formula (III), 60° C. closed 2W [2, 7] [ppm] | Amount of compound represented by Formula (III), Initial ([2]; start of test) [ppm] | 90% particle size distribution [3] [μm]
C[C@@H](Cn1c(=O)[nH]/c(=N\c2ccc(Oc3ccccn3)cc2)n(Cc2ccc(Cl)cc2)c1=O)C(=O)O [Reference Example 4] | 17.2 | 10.7 | 23.9 | 13.1 | 9.4 | 19.7 | 10.9 | 3.0 | 17.2 | 10.7 | 23.9 | 10.9 | 3.0 | 
C[C@@H](Cn1c(=O)[nH]/c(=N\c2ccc(Oc3ccccn3)cc2)n(Cc2ccc(Cl)cc2)c1=O)C(=O)O [Example 7] |  |  |  |  |  |  |  |  |  |  |  |  |  | 2.791
